Reference: ChEMBL document CHEMBL5724914, “Linking interpersonal differences in gut microbiota composition and drug biotransformation activity” (2024)

Legend:
[1] = (§1) The drug is tested on Z-020 corresponding to rabbit gut metagenome with ENA study accession number: PRJEB37062 and ENA sample accession number: ERS12561819 for biotransformation under anaerobic condition. The drug concentrations were measured over 9 timepoints collected between 0 and 24 hours of incubation by liquid-chromatography-coupled mass spectrometry (LC–MS); details: 2 µM
[2] = as §1, with “Z-009” for “Z-020”, “pig” for “rabbit”, “ERS12561809” for “ERS12561819”; details: 2 µM
[3] = as §1, with “Z-005” for “Z-020”, “to” for “to rabbit gut”, “ERS12561805” for “ERS12561819”; details: 2 µM
[4] = as §1, with “Z-003” for “Z-020”, “pig” for “rabbit”, “ERS12561803” for “ERS12561819”; details: 2 µM
[5] = as §1, with “WLS-370” for “Z-020”, “human” for “rabbit”, “ERS12561793” for “ERS12561819”; details: 2 µM
[6] = as §1, with “WLS-098” for “Z-020”, “human” for “rabbit”, “ERS12561754” for “ERS12561819”; details: 2 µM
[7] = as §1, with “WLS-090” for “Z-020”, “human” for “rabbit”, “ERS12561753” for “ERS12561819”; details: 2 µM
[8] = as §1, with “WLS-038” for “Z-020”, “human” for “rabbit”, “ERS12561745” for “ERS12561819”; details: 2 µM
[9] = human gut metagenome, 24 h, 2 µM
[10] = human gut metagenome, 24 h, 2 µM; remark: listed apart in the source
[11] = human gut metagenome, 24 h, 2 µM; remark: listed apart in the source
[12] = human gut metagenome, 24 h, 2 µM; remark: listed apart in the source
[13] = human gut metagenome, 24 h, 2 µM; remark: listed apart in the source
[14] = human gut metagenome, 24 h, 2 µM; remark: listed apart in the source
[15] = human gut metagenome, 24 h, 2 µM; remark: listed apart in the source
[16] = human gut metagenome, 24 h, 2 µM; remark: listed apart in the source
[17] = human gut metagenome, 24 h, 2 µM; remark: listed apart in the source
[18] = human gut metagenome, 24 h, 2 µM; remark: listed apart in the source
[19] = human gut metagenome, 24 h, 2 µM; remark: listed apart in the source
[20] = human gut metagenome, 24 h, 2 µM; remark: listed apart in the source
Also: call rule not given here.

SMILES	Bacterial Biotransformation [1]	Bacterial Biotransformation [2]	Bacterial Biotransformation [3]	Bacterial Biotransformation [4]	Bacterial Biotransformation [5]	Bacterial Biotransformation [6]	Bacterial Biotransformation [7]	Bacterial Biotransformation [8]	Bacterial Biotransformation [9]	Bacterial Biotransformation [10]	Bacterial Biotransformation [11]	Bacterial Biotransformation [12]	Bacterial Biotransformation [13]	Bacterial Biotransformation [14]	Bacterial Biotransformation [15]	Bacterial Biotransformation [16]	Bacterial Biotransformation [17]	Bacterial Biotransformation [18]	Bacterial Biotransformation [19]	Bacterial Biotransformation [20]
CC(C)[C@H]1CC[C@H](C(=O)N[C@H](Cc2ccccc2)C(=O)O)CC1 [NATEGLINIDE]	Compound metabolized	Compound metabolized	Compound NOT metabolized	Compound metabolized	Compound metabolized	Compound metabolized	Compound metabolized	Compound metabolized	Compound metabolized	Compound metabolized	Compound metabolized	Compound metabolized	Compound metabolized	Compound metabolized	Compound metabolized	Compound metabolized	Compound metabolized	Compound metabolized	Compound metabolized	Compound metabolized
CN(C)C(=O)Oc1cccc([N+](C)(C)C)c1.[Br-] [NEOSTIGMINE BROMIDE]	Compound NOT metabolized	Compound NOT metabolized	Compound NOT metabolized	Compound metabolized	Compound NOT metabolized	Compound NOT metabolized	Compound NOT metabolized	Compound NOT metabolized	Compound NOT metabolized	Compound NOT metabolized	Compound NOT metabolized	Compound NOT metabolized	Compound NOT metabolized	Compound NOT metabolized	Compound NOT metabolized	Compound NOT metabolized	Compound NOT metabolized	Compound NOT metabolized	Compound NOT metabolized	Compound NOT metabolized
Cc1ccccc1C(OCCN(C)C)c1ccccc1.O=C(O)CC(O)(CC(=O)O)C(=O)O (stereo not given) [ORPHENADRINE CITRATE]	Compound metabolized	Compound metabolized	Compound NOT metabolized	Compound NOT metabolized	Compound NOT metabolized	Compound NOT metabolized	Compound NOT metabolized	Compound NOT metabolized	Compound NOT metabolized	Compound metabolized	Compound NOT metabolized	Compound NOT metabolized	Compound NOT metabolized	Compound NOT metabolized	Compound NOT metabolized	Compound metabolized	Compound NOT metabolized	Compound NOT metabolized	Compound metabolized	Compound NOT metabolized
CC(=O)CCCCn1c(=O)c2c(ncn2C)n(C)c1=O [PENTOXIFYLLINE]	Compound NOT metabolized	Compound NOT metabolized	Compound NOT metabolized	Compound NOT metabolized	Compound NOT metabolized	Compound metabolized	Compound metabolized	Compound NOT metabolized	Compound NOT metabolized	Compound NOT metabolized	Compound NOT metabolized	Compound NOT metabolized	Compound NOT metabolized	Compound NOT metabolized	Compound NOT metabolized	Compound metabolized	Compound NOT metabolized	Compound NOT metabolized	Compound metabolized	Compound NOT metabolized
CCCN1C[C@H](CSC)C[C@@H]2c3cccc4[nH]cc(c34)C[C@H]21.CS(=O)(=O)O [PERGOLIDE MESYLATE]	Compound NOT metabolized	Compound NOT metabolized	Compound NOT metabolized	Compound NOT metabolized	Compound metabolized	Compound NOT metabolized	Compound NOT metabolized	Compound NOT metabolized	Compound NOT metabolized	Compound NOT metabolized	Compound NOT metabolized	Compound NOT metabolized	Compound NOT metabolized	Compound NOT metabolized	Compound NOT metabolized	Compound NOT metabolized	Compound NOT metabolized	Compound NOT metabolized	Compound NOT metabolized	Compound NOT metabolized
CC(C)(C)N.CCC[C@H](N[C@@H](C)C(=O)N1[C@H](C(=O)O)C[C@@H]2CCCC[C@@H]21)C(=O)OCC [PERINDOPRIL ERBUMINE]	Compound metabolized	Compound metabolized	Compound metabolized	Compound metabolized	Compound metabolized	Compound metabolized	Compound metabolized	Compound NOT metabolized	Compound NOT metabolized	Compound metabolized	Compound metabolized	Compound NOT metabolized	Compound metabolized	Compound metabolized	Compound metabolized	Compound metabolized	Compound metabolized	Compound NOT metabolized	Compound metabolized	Compound metabolized
COc1cc(NC(C)CCCN)c2ncccc2c1.O=P(O)(O)O.O=P(O)(O)O (stereo not given) [PRIMAQUINE PHOSPHATE]	Compound NOT metabolized	Compound NOT metabolized	Compound NOT metabolized	Compound NOT metabolized	Compound NOT metabolized	Compound metabolized	Compound metabolized	Compound NOT metabolized	Compound NOT metabolized	Compound metabolized	Compound NOT metabolized	Compound NOT metabolized	Compound metabolized	Compound NOT metabolized	Compound NOT metabolized	Compound NOT metabolized	Compound metabolized	Compound metabolized	Compound metabolized	Compound NOT metabolized
C=C[C@H]1CN2CC[C@H]1C[C@H]2[C@H](O)c1ccnc2ccc(OC)cc12.C=C[C@H]1CN2CC[C@H]1C[C@H]2[C@H](O)c1ccnc2ccc(OC)cc12.O.O.O=S(=O)(O)O [QUININE SULFATE]	Compound NOT metabolized	Compound NOT metabolized	Compound NOT metabolized	Compound NOT metabolized	Compound NOT metabolized	Compound metabolized	Compound metabolized	Compound NOT metabolized	Compound NOT metabolized	Compound NOT metabolized	Compound metabolized	Compound metabolized	Compound metabolized	Compound NOT metabolized	Compound NOT metabolized	Compound metabolized	Compound NOT metabolized	Compound NOT metabolized	Compound metabolized	Compound NOT metabolized
